Earlier results as cited in patent US20120244588A1, “METHOD OF PRODUCING 3-HYDROXYPROPIONIC ACID USING MALONIC SEMIALDEHYDE REDUCING PATHWAY” (SAMSUNG ELECTRONICS CO., LTD., priority 2011, published 2012).

Assays:
[1] = 25° C.

Row | solubility in water | pKa [1] | solubility in water relative to citric acid or malic acid | SMILES
1 | very soluble | 4.51 | – | O=C(O)CCO [3-HP, 3-hydroxypropionic acid]
2 | – | – | 100 times | O=C([O-])CCO.O=C([O-])CCO.[Ca+2] [calcium salt of 3-HP]
